Source: patent publication US20260070945A1, “MACROCYCLIC IMMUNOMODULATORS” (Bristol-Myers Squibb Company, priority 2022, published 2026)
Where a SMILES comes first, the peptide text is derived from it. Bridges are numbered along the chain shown (N, C = ends). [ ]: non-standard residue; d: D form. The star is where a group is joined. ξ: configuration not given here. Phe(3-CF3) = N[C@@H](Cc1cccc(C(F)(F)F)c1)C(=O)O; Phe(4-CONH2) = NC(=O)c1ccc(C[C@H](N)C(=O)O)cc1; Phe(4-COOH) = N[C@@H](Cc1ccc(C(=O)O)cc1)C(=O)O; Trp(1-Me) = Cn1cc(C[C@H](N)C(=O)O)c2ccccc21; Bip = N[C@@H](Cc1ccc(-c2ccccc2)cc1)C(=O)O; Phe(3-Me) = Cc1cccc(C[C@H](N)C(=O)O)c1; NH(CH2)12COOH = O=C(O)CCCCCCCCCCCCN*; Val(3-OH) = CC(C)(O)[C@H](N)C(=O)O; aIle = CC[C@@H](C)[C@H](N)C(=O)O; hArg = N=C(N)NCCCC[C@H](N)C(=O)O; 4Pal = N[C@@H](Cc1ccncc1)C(=O)O; Cha = N[C@@H](CC1CCCCC1)C(=O)O; Cit = NC(=O)NCCC[C@H](N)C(=O)O; Ile(3ξ) = CCC(C)[C@H](N)C(=O)O; Thr(3ξ) = CC(O)[C@H](N)C(=O)O; Carboxymethyl = O=C(O)C*; NMeA = CN[C@@H](C)C(=O)O; Orn = NCCC[C@H](N)C(=O)O; Aun = NCCCCCCCCCCC(=O)O; Dab = NCC[C@H](N)C(=O)O; Dap = NC[C@H](N)C(=O)O; AEEA = NCCOCCOCC(=O)O

These molecules were tested against T1, PD-1/PD-L1 interaction (PE-labeled human PD-L1-Ig binding to Jurkat cell line over-expressing human PD-1) (Homo sapiens, UniProt Q15116) (assay: Jurkat-PD-1 Cell Binding High-Content Screening Assay (CBA)). Details: Jurkat-hPD-1 cells, PE-labeled PD-L1-Ig 20 nM final; read-out: Jurkat HPD1 PDL1 IC50.
T1 construct: expressed in transfected cells; host or cells: Jurkat
How it was run: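 Compound is added first to the PD-1-expressing Jurkat cells and held 2 h at 37 °C in serum-containing DMEM. The fluorescent PD-L1 fusion follows at 20 nM final for 1 h. Fixed, Hoechst-stained cells are then imaged for bound label.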

T1 sequence (Q15116 25-288): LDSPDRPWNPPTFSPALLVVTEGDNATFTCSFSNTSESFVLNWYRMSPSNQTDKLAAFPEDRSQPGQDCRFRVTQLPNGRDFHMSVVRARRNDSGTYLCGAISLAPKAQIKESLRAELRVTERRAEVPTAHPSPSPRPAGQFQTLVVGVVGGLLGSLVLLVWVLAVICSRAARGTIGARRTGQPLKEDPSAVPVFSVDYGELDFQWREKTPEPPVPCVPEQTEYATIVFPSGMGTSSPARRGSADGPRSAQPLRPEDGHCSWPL

| IC50 | SMILES |
| --- | --- |
| 26.9 nM | Cc1cccc(C[C@@H]2NC(=O)[C@H](CC(=O)O)NC(=O)[C@H](Cc3ccc(OCC(=O)O)cc3)NC(=O)[C@H](CCCNC(=N)N)NC(=O)CSC[C@@H](C(=O)N[C@H](CC(N)=O)C(=O)NCCCCCCCCCCC(=O)O)NC(=O)[C@H](C(C)C)NC(=O)[C@H](C(C)C)NC(=O)[C@H](CC3CCCCC3)NC(=O)[C@H](CCN)NC(=O)[C@@H](CC(C)C)NC(=O)[C@H](C)N(C)C(=O)[C@H](Cc3ccc(OCC(=O)O)cc3)NC(=O)[C@H](Cc3ccc(-c4ccccc4)cc3)NC(=O)[C@H](Cc3ccc(OCC(=O)O)cc3)NC2=O)c1 [Example 2360] ({CH2CO}-RY(Carboxymethyl)D[Phe(3-Me)]Y(Carboxymethyl)[Bip]Y(Carboxymethyl)[NMeA][dL][Dab][Cha]VVC[dN][Aun]-OH; thioether N-14) |
| 570 nM | CCC(C)[C@@H]1NC(=O)[C@H](Cc2ccc(-c3ccccc3)cc2)NC(=O)[C@H](C(C)C)NC(=O)[C@H](Cc2cn(C)c3ccccc23)NC(=O)[C@H](CC(=O)O)NC(=O)[C@H](Cc2ccc(OCC(=O)O)cc2)NC(=O)[C@H](C(C)O)NC(=O)CSC[C@@H](C(=O)N[C@@H](CCCN)C(=O)NCCCCCCCCCCC(=O)O)NC(=O)[C@H](C(C)O)NC(=O)[C@H](C(C)C)NC(=O)[C@H](CC2CCCCC2)NC(=O)[C@H](CCN)NC(=O)[C@@H](CC(C)C)NC(=O)[C@H](C)N(C)C1=O (stereo partly drawn) [Example 2416] ({CH2CO}-[Thr(3ξ)]Y(Carboxymethyl)D[Trp(1-Me)]V[Bip][Ile(3ξ)][NMeA][dL][Dab][Cha]V[Thr(3ξ)]C[Orn][Aun]-OH; thioether N-14) |
| 38.6 nM | CC[C@@H](C)[C@@H]1NC(=O)[C@H](Cc2ccc(-c3ccccc3)cc2)NC(=O)[C@H](C(C)C)NC(=O)[C@H](Cc2c[nH]c3ccccc23)NC(=O)[C@H](CC(=O)O)NC(=O)[C@H](Cc2ccc(O)cc2)NC(=O)[C@H](CCCNC(N)=O)NC(=O)CSC[C@@H](C(=O)N[C@H](CCCCN)C(=O)NCCOCCOCC(=O)NCCCCCCCCCCC(=O)O)NC(=O)[C@H](CO)NC(=O)[C@H](C(C)C)NC(=O)[C@H](CC2CCCCC2)NC(=O)[C@H](CCN)NC(=O)[C@@H](CC(C)C)NC(=O)[C@H](C)N(C)C1=O [Example 2027] ({CH2CO}-[Cit]YDWV[Bip][aIle][NMeA][dL][Dab][Cha]VSC[dK][AEEA][Aun]-OH; thioether N-14) |

Further lines, the molecule ahead of its results:

| SMILES | IC50 |
| --- | --- |
| Cc1cccc(C[C@@H]2NC(=O)[C@H](CC(=O)O)NC(=O)[C@H](Cc3ccncc3)NC(=O)[C@H](Cc3ccc(OCC(=O)O)cc3)NC(=O)CSC[C@@H](C(=O)N[C@@H](CCN)C(=O)NCCOCCOCC(=O)NCCCCCCCCCCC(=O)O)NC(=O)[C@H]([C@@H](C)O)NC(=O)[C@H](C(C)C)NC(=O)[C@H](CC3CCCCC3)NC(=O)[C@H](CCN)NC(=O)[C@@H](CC(C)C)NC(=O)[C@H](C)N(C)C(=O)[C@H](Cc3ccc(OCC(=O)O)cc3)NC(=O)[C@H](Cc3ccc(-c4ccccc4)cc3)NC(=O)[C@H](Cc3ccc(OCC(=O)O)cc3)NC2=O)c1 [Example 1360] ({CH2CO}-Y(Carboxymethyl)[4Pal]D[Phe(3-Me)]Y(Carboxymethyl)[Bip]Y(Carboxymethyl)[NMeA][dL][Dab][Cha]VTC[Dab][AEEA][Aun]-OH; thioether N-14) | 8.6 nM |
| Cc1cccc(C[C@@H]2NC(=O)[C@H](CC(=O)O)NC(=O)[C@H](Cc3ccc(OCC(=O)O)cc3)NC(=O)[C@H](Cc3ccc(C(N)=O)cc3)NC(=O)CSC[C@@H](C(=O)N[C@H](CC(N)=O)C(=O)NCCOCCOCC(=O)NCCCCCCCCCCC(=O)O)NC(=O)[C@H](CO)NC(=O)[C@H](C(C)C)NC(=O)[C@H](CC3CCCCC3)NC(=O)[C@H](CCN)NC(=O)[C@@H](CC(C)C)NC(=O)[C@H](C)N(C)C(=O)[C@H](Cc3ccc(O)cc3)NC(=O)[C@H](Cc3ccc(-c4ccccc4)cc3)NC(=O)[C@H](Cc3ccc(OCC(=O)O)cc3)NC2=O)c1 [Example 2423] ({CH2CO}-[Phe(4-CONH2)]Y(Carboxymethyl)D[Phe(3-Me)]Y(Carboxymethyl)[Bip]Y[NMeA][dL][Dab][Cha]VSC[dN][AEEA][Aun]-OH; thioether N-14) | 14.2 nM |
| CC(C)C[C@H]1NC(=O)[C@H](C)N(C)C(=O)[C@H](CCCNC(N)=O)NC(=O)[C@H](Cc2ccc(-c3ccccc3)cc2)NC(=O)[C@H](Cc2ccc(C(=O)O)cc2)NC(=O)[C@H](Cc2cccc(C(F)(F)F)c2)NC(=O)[C@H](CC(=O)O)NC(=O)[C@H](Cc2ccc(OCC(=O)O)cc2)NC(=O)[C@H](Cc2ccc(C(=O)O)cc2)NC(=O)CSC[C@@H](C(=O)N[C@@H](CCN)C(=O)NCCCCCCCCCCCCC(=O)O)NC(=O)[C@H](CC(=O)O)NC(=O)[C@H](C(C)(C)O)NC(=O)[C@H](CC2CCCCC2)NC(=O)[C@H](CCN)NC1=O [Example 1146] ({CH2CO}-[Phe(4-COOH)]Y(Carboxymethyl)D[Phe(3-CF3)][Phe(4-COOH)][Bip][Cit][NMeA][dL][Dab][Cha][Val(3-OH)]DC[Dab]-{NH(CH2)12COOH}; thioether N-14) | 13.7 nM |
| CC(C)C[C@@H]1NC(=O)[C@H](Cc2c[nH]c3ccccc23)NC(=O)[C@H](CC(=O)O)NC(=O)[C@H](Cc2ccc(OCC(=O)O)cc2)NC(=O)[C@H](Cc2ccccc2)NC(=O)CSC[C@@H](C(=O)N[C@@H](CCCCN)C(=O)NCCCCCCCCCCC(=O)O)NC(=O)[C@H](CN)NC(=O)[C@H](C(C)C)NC(=O)[C@H](CC(C)C)NC(=O)[C@H](CC(N)=O)NC(=O)[C@@H](CC(C)C)NC(=O)[C@H](C)N(C)C(=O)[C@H](C(C)C)NC(=O)[C@H](Cc2ccc(-c3ccccc3)cc2)NC1=O [Example 1350] ({CH2CO}-FY(Carboxymethyl)DWL[Bip]V[NMeA][dL]NLV[Dap]CK[Aun]-OH; thioether N-14) | 119 nM |
| Cc1cccc(C[C@@H]2NC(=O)[C@H](CC(=O)O)NC(=O)[C@H](Cc3ccc(C(=O)O)cc3)NC(=O)[C@H](Cc3ccncc3)NC(=O)CSC[C@@H](C(=O)N[C@@H](CCN)C(=O)NCCCCCCCCCCC(=O)O)NC(=O)[C@H](CO)NC(=O)[C@H](C(C)(C)O)NC(=O)[C@H](CC3CCCCC3)NC(=O)[C@H](CCN)NC(=O)[C@@H](CC(C)C)NC(=O)[C@H](C)N(C)C(=O)[C@H](Cc3ccc(OCC(=O)O)cc3)NC(=O)[C@H](Cc3ccc(-c4ccccc4)cc3)NC(=O)[C@H](Cc3ccc(OCC(=O)O)cc3)NC2=O)c1 [Example 1282] ({CH2CO}-[4Pal][Phe(4-COOH)]D[Phe(3-Me)]Y(Carboxymethyl)[Bip]Y(Carboxymethyl)[NMeA][dL][Dab][Cha][Val(3-OH)]SC[Dab][Aun]-OH; thioether N-14) | 7.2 nM |
| CC(C)C[C@H]1NC(=O)[C@H](C)N(C)C(=O)[C@H](C(C)C)NC(=O)[C@H](Cc2ccc(-c3ccccc3)cc2)NC(=O)[C@H](C(C)C)NC(=O)[C@H](Cc2c[nH]c3ccccc23)NC(=O)[C@H](CC(=O)O)NC(=O)[C@H](CCCCNC(=N)N)NC(=O)[C@H](Cc2ccc(OCC(=O)O)cc2)NC(=O)CSC[C@@H](C(=O)N[C@@H](CCCN)C(=O)NCCOCCOCC(=O)NCCCCCCCCCCC(=O)O)NC(=O)[C@H](C(C)O)NC(=O)[C@H](C(C)C)NC(=O)[C@H](CC2CCCCC2)NC(=O)[C@H](CCN)NC1=O (stereo partly drawn) [Example 2111] ({CH2CO}-Y(Carboxymethyl)[hArg]DWV[Bip]V[NMeA][dL][Dab][Cha]V[Thr(3ξ)]C[Orn][AEEA][Aun]-OH; thioether N-14) | 29.9 nM |
| Cc1cccc(C[C@@H]2NC(=O)[C@H](CC(=O)O)NC(=O)[C@H](Cc3ccc(OCC(=O)O)cc3)NC(=O)[C@H](CCCCN)NC(=O)CSC[C@@H](C(=O)N[C@@H](CCCCN)C(=O)NCCCCCCCCCCC(=O)O)NC(=O)[C@H]([C@@H](C)O)NC(=O)[C@H](C(C)C)NC(=O)[C@H](CC3CCCCC3)NC(=O)[C@H](CCN)NC(=O)[C@@H](CC(C)C)NC(=O)[C@H](C)N(C)C(=O)[C@H](Cc3ccc(OCC(=O)O)cc3)NC(=O)[C@H](Cc3ccc(-c4ccccc4)cc3)NC(=O)[C@H](Cc3ccc(C(=O)O)cc3)NC2=O)c1 [Example 1226] ({CH2CO}-KY(Carboxymethyl)D[Phe(3-Me)][Phe(4-COOH)][Bip]Y(Carboxymethyl)[NMeA][dL][Dab][Cha]VTCK[Aun]-OH; thioether N-14) | 80.6 nM |

Same assay, conditions: PE-labeled PD-L1-Ig 20 nM final, Jurkat-hPD-1 cells; read-out: Jurkat HPD1 PDL1 IC50

| IC50 | SMILES |
| --- | --- |
| 35.2 nM | CC(C)C[C@@H]1NC(=O)[C@H](Cc2c[nH]c3ccccc23)NC(=O)[C@H](CC(=O)O)NC(=O)[C@H](Cc2ccc(C(=O)O)cc2)NC(=O)[C@H](Cc2ccc(OCC(=O)O)cc2)NC(=O)CSC[C@@H](C(=O)NCCOCCOCC(=O)NCCCCCCCCCCC(=O)O)NC(=O)[C@H](CO)NC(=O)[C@H](C(C)O)NC(=O)[C@H](CC2CCCCC2)NC(=O)[C@H](CCN)NC(=O)[C@@H](CC(C)C)NC(=O)[C@H](C)N(C)C(=O)[C@H](C(C)C)NC(=O)[C@H](Cc2ccc(-c3ccccc3)cc2)NC1=O (stereo partly drawn) [Example 2433] ({CH2CO}-Y(Carboxymethyl)[Phe(4-COOH)]DWL[Bip]V[NMeA][dL][Dab][Cha][Thr(3ξ)]SC[AEEA][Aun]-OH; thioether N-14) |
| 54.8 nM | Cc1cccc(C[C@@H]2NC(=O)[C@H](CC(=O)O)NC(=O)[C@H](Cc3ccc(OCC(=O)O)cc3)NC(=O)[C@H](Cc3ccncc3)NC(=O)CSC[C@@H](C(=O)N[C@@H](CCN)C(=O)NCCCCCCCCCCC(=O)O)NC(=O)[C@H](CO)NC(=O)[C@H](C(C)(C)O)NC(=O)[C@H](CC3CCCCC3)NC(=O)[C@H](Cc3c[nH]cn3)NC(=O)[C@@H](CC(C)C)NC(=O)[C@H](C)N(C)C(=O)[C@H](Cc3ccc(OCC(=O)O)cc3)NC(=O)[C@H](Cc3ccc(-c4ccccc4)cc3)NC(=O)[C@H](Cc3ccc(OCC(=O)O)cc3)NC2=O)c1 [Example 2466] ({CH2CO}-[4Pal]Y(Carboxymethyl)D[Phe(3-Me)]Y(Carboxymethyl)[Bip]Y(Carboxymethyl)[NMeA][dL]H[Cha][Val(3-OH)]SC[Dab][Aun]-OH; thioether N-14) |
